Source: publication PMC3703859 (Neuropharmacology, 2010)

Assays:
Assay in all cases: [^3H]CFT binding on intact transfected COS7 cells
wild type human DAT = wild type human DAT (Homo sapiens, UniProt Q01959); conditions: WT DAT
human DAT V152A = human DAT V152A (Homo sapiens, UniProt Q01959, V152A); conditions: V152A, intact COS7 cells
human DAT V152I = human DAT V152I (Homo sapiens, UniProt Q01959, V152I); conditions: V152I, intact COS7 cells
human DAT A479V/A480V = human DAT A479V/A480V (Homo sapiens, UniProt Q01959, A479V/A480V)
Chain of human DAT A479V/A480V (Q01959 whole entry A479V/A480V): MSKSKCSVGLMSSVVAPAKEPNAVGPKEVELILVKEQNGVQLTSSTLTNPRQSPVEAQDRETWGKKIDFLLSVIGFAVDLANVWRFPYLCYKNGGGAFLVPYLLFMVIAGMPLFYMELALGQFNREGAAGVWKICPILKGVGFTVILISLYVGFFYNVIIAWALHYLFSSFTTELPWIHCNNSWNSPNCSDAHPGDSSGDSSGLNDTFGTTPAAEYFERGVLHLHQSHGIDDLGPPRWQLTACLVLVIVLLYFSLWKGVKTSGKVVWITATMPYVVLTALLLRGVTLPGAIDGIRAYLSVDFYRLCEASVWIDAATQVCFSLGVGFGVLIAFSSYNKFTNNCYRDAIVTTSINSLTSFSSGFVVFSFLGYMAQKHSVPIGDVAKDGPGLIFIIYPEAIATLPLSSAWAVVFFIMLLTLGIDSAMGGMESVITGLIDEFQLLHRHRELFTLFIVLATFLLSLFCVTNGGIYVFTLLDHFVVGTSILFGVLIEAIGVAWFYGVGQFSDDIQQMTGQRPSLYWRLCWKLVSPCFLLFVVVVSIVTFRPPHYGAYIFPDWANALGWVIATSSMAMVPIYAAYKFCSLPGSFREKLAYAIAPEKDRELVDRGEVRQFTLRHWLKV

Chain of wild type human DAT (Q01959 whole entry): as the sequence (Q01959 whole entry A479V/A480V) above, with V479A, V480A counted along it
Chain of human DAT V152A (Q01959 whole entry V152A): as the sequence (Q01959 whole entry A479V/A480V) above, with V152A, V479A, V480A counted along it
Chain of human DAT V152I (Q01959 whole entry V152I): as the sequence (Q01959 whole entry A479V/A480V) above, with V152I, V479A, V480A counted along it

COC(=O)[C@H]1[C@@H](c2ccc(F)cc2)C[C@@H]2CC[C@H]1N2C [CFT, (−)-2β-carbomethoxy-3β-(4-fluorophenyl)tropane]
Bmax ± S.E. of [^3H]CFT binding (wild type human DAT): 386 ± 89 fmol/10^5 cells
Bmax ± S.E. of [^3H]CFT binding (human DAT V152A): 380 ± 99 fmol/10^5 cells
Bmax ± S.E. of [^3H]CFT binding (human DAT V152I): 215 ± 58 fmol/10^5 cells
Bmax ± S.E. of [^3H]CFT binding (human DAT A479V/A480V): 310 ± 44 fmol/10^5 cells
